From ChEMBL document CHEMBL3751747, “Synthesis and positive inotropic activity evaluation of liguzinediol metabolites” (Bioorg Med Chem Lett, 2016)
Where “and” joins values, the source holds several entries; their conditions need not be identical. Identical values can stand only once.

How the values were obtained:
Heart [1] = experiment: Positive inotropic activity in Sprague-Dawley rat heart assessed as left ventricular systolic pressure at 100 umol/L (reference value: 20.7 +/- 7.61 to 25.86 +/- 9.41 mmHg); assay type: functional, Heart left ventricle
Heart [2] = experiment: Positive inotropic activity in Sprague-Dawley rat heart assessed as peak decrease rate of left ventricular pressure at 1 umol/L (reference value: - 756.58 +/- 265.23 to - 831 +/- 313.09 mmHg/s); assay type: functional, Heart left ventricle
Heart [3] = experiment: Positive inotropic activity in Sprague-Dawley rat heart assessed as heart rate at 1 umol/L (reference value: 218.67 +/- 20.62 to 260 +/- 21.81 bpm); assay type: functional
Heart [4] = experiment: Positive inotropic activity in Sprague-Dawley rat heart assessed as heart rate at 100 umol/L (reference value: 218.67 +/- 20.62 to 260 +/- 21.81 bpm); assay type: functional
Heart [5] = experiment: Positive inotropic activity in Sprague-Dawley rat heart assessed as peak decrease rate of left ventricular pressure at 10 umol/L (reference value: - 756.58 +/- 265.23 to - 831 +/- 313.09 mmHg/s); assay type: functional, Heart left ventricle
Heart [6] = experiment: Positive inotropic activity in Sprague-Dawley rat heart assessed as heart rate at 10 umol/L (reference value: 218.67 +/- 20.62 to 260 +/- 21.81 bpm); assay type: functional
Heart [7] = experiment: Positive inotropic activity in Sprague-Dawley rat heart assessed as peak rise rate of left ventricular pressure at 10 umol/L (reference value: 1117.66 +/- 665.76 to 1242.03 +/- 495.72 mmHg/s); assay type: functional, Heart left ventricle
[8] = Retention time of the compound by HPLC- MS/MS analysis; assay type: physicochemical
Heart [9] = experiment: Positive inotropic activity in Sprague-Dawley rat heart assessed as peak rise rate of left ventricular pressure at 1 umol/L (reference value: 1117.66 +/- 665.76 to 1242.03 +/- 495.72 mmHg/s); assay type: functional, Heart left ventricle
Heart [10] = experiment: Positive inotropic activity in Sprague-Dawley rat heart assessed as left ventricular diastolic pressure at 10 umol/L (reference value: -0.04 +/- 0.33 to -0.67 +/- 0.69 mmHg); assay type: functional, Heart left ventricle
Heart [11] = experiment: Positive inotropic activity in Sprague-Dawley rat heart assessed as left ventricular diastolic pressure at 100 umol/L (reference value: -0.04 +/- 0.33 to -0.67 +/- 0.69 mmHg); assay type: functional, Heart left ventricle
Heart [12] = experiment: Positive inotropic activity in Sprague-Dawley rat heart assessed as left ventricular systolic pressure at 10 umol/L (reference value: 20.7 +/- 7.61 to 25.86 +/- 9.41 mmHg); assay type: functional, Heart left ventricle
Heart [13] = experiment: Positive inotropic activity in Sprague-Dawley rat heart assessed as peak rise of left ventricular pressure at 100 umol/L (reference value: 1117.66 +/- 665.76 to 1242.03 +/- 495.72 mmHg/s); assay type: functional, Heart left ventricle
Heart [14] = experiment: Positive inotropic activity in Sprague-Dawley rat heart assessed as left ventricular systolic pressure at 1 umol/L (reference value: 20.7 +/- 7.61 to 25.86 +/- 9.41 mmHg); assay type: functional, Heart left ventricle
Heart [15] = experiment: Toxicity in Sprague-Dawley rat heart assessed as arrhythmias; settings: in vivo
Heart [16] = experiment: Positive inotropic activity in Sprague-Dawley rat heart assessed as left ventricular diastolic pressure at 1 umol/L (reference value: -0.04 +/- 0.33 to -0.67 +/- 0.69 mmHg); assay type: functional, Heart left ventricle
Heart [17] = experiment: Positive inotropic activity in Sprague-Dawley rat heart assessed as peak decrease rate of left ventricular pressure at 100 umol/L (reference value: - 756.58 +/- 265.23 to - 831 +/- 313.09 mmHg/s); assay type: functional, Heart left ventricle
Heart [18] = experiment: Positive inotropic activity in Sprague-Dawley rat heart assessed as increase in peak rise of left ventricular pressure at 100 uM relative to control; assay type: functional, Heart left ventricle
Heart [19] = experiment: Positive inotropic activity in Sprague-Dawley rat heart assessed as increase in peak rise of left ventricular pressure at 10 uM relative to control; assay type: functional, Heart left ventricle
Heart [20] = experiment: Positive inotropic activity in Sprague-Dawley rat heart assessed as -dP/dtmax; assay type: functional, tissue-based
Heart [21] = experiment: Positive inotropic activity in Sprague-Dawley rat heart assessed as left ventricular systolic pressure; assay type: functional, tissue-based; settings: Heart left ventricle
Heart [22] = experiment: Positive inotropic activity in Sprague-Dawley rat heart assessed as increase in left ventricular systolic pressure at 1 uM relative to control; assay type: functional, Heart left ventricle
Heart [23] = experiment: Positive inotropic activity in Sprague-Dawley rat heart assessed as increase in peak rise of left ventricular pressure at 1 uM relative to control; assay type: functional, Heart left ventricle
Heart [24] = experiment: Positive inotropic activity in Sprague-Dawley rat heart assessed as increase in peak decrease rate of left ventricular pressure at 100 uM relative to control; assay type: functional, Heart left ventricle; design: scale not given: the % may be the effect or the level left
Heart [25] = experiment: Positive inotropic activity in Sprague-Dawley rat heart assessed as increase in peak decrease rate of left ventricular pressure at 1 uM relative to control; assay type: functional, Heart left ventricle; design: scale not given: the % may be the effect or the level left
Heart [26] = experiment: Positive inotropic activity in Sprague-Dawley rat heart assessed as increase in left ventricular systolic pressure at 10 uM relative to control; assay type: functional, Heart left ventricle
Heart [27] = experiment: Positive inotropic activity in Sprague-Dawley rat heart assessed as increase in peak decrease rate of left ventricular pressure at 10 uM relative to control; assay type: functional, Heart left ventricle; design: scale not given: the % may be the effect or the level left
Heart [28] = experiment: Positive inotropic activity in Sprague-Dawley rat heart assessed as +dP/dtmax; assay type: functional, tissue-based
Heart [29] = experiment: Positive inotropic activity in Sprague-Dawley rat heart assessed as increase in left ventricular systolic pressure at 100 uM relative to control; assay type: functional, Heart left ventricle

SMILES | Activity (Heart [1]) | Activity (Heart [2]) | Activity (Heart [3]) | Activity (Heart [4]) | Activity (Heart [5]) | Activity (Heart [6]) | Activity (Heart [7]) | Retention_time [8] | Activity (Heart [9]) | Activity (Heart [10]) | Activity (Heart [11]) | Activity (Heart [12]) | Activity (Heart [13]) | Activity (Heart [14]) | Activity (Heart [15]) | Activity (Heart [16]) | Activity (Heart [17]) | also measured
Cc1nc(C(=O)O)c(C)nc1CO | 28.51 mmHg | -865.84 mmHg/s | 259.5 bpm | 246.61 bpm | -892.92 mmHg/s | 252.83 bpm | 1286.48 mmHg/s | 3.675 min and 3.637 min | 1267.96 mmHg/s | -0.19 mmHg | -0.38 mmHg | 27.85 mmHg | 1299.82 mmHg/s | 26.98 mmHg | Non-toxic | -0.24 mmHg | -904.56 mmHg/s | –
Cc1nc(CO)c(C)nc1CO | – | – | 239.06 bpm | 238.5 bpm | – | 245.44 bpm | – | – | – | -0.19 mmHg | -0.34 mmHg | – | – | – | Non-toxic | 0 mmHg | – | Activity (Heart [18]): 23.9%; Activity (Heart [19]): 14.75%; Activity (Heart [20]): Dose-dependent effect; Activity (Heart [21]): Dose-dependent effect; Activity (Heart [22]): 17.65%; Activity (Heart [23]): 4.23%; Activity (Heart [24]): 47.83%; Activity (Heart [25]): 10.38%; Activity (Heart [26]): 32.96%; Activity (Heart [27]): 24.95%; Activity (Heart [28]): Dose-dependent effect; Activity (Heart [29]): 59.4%
CC(=O)NC(CSCc1nc(C)c(CO)nc1C)C(=O)O (stereo in doubt) | – | – | – | – | – | – | – | 5.709 min | – | – | – | – | – | – | – | – | – | –
Cc1nc(CO[C@@H]2O[C@H](C(=O)O)[C@@H](O)[C@H](O)[C@H]2O)c(C)nc1CO (stereo in doubt) | – | – | – | – | – | – | – | 6.71 min | – | – | – | – | – | – | – | – | – | –
Cc1nc(CSCC(N)C(=O)O)c(C)nc1CO (stereo in doubt) | – | – | – | – | – | – | – | 2.988 min | – | – | – | – | – | – | – | – | – | –
Cc1nc(CO[C@@H]2O[C@H](C(=O)O)[C@@H](O)[C@H](O)[C@H]2O)c(C)nc1CO (stereo in doubt; 2) | 23.76 mmHg | -790.99 mmHg/s | 234.28 bpm | 220.67 bpm | -804.27 mmHg/s | 221.22 bpm | 1123.44 mmHg/s | 6.687 min | 1127.74 mmHg/s | -0.76 mmHg | -0.97 mmHg | 22.66 mmHg | 1127.22 mmHg/s | 22.35 mmHg | Non-toxic | -0.73 mmHg | -733.61 mmHg/s | –
Cc1nc(CSCC(N)C(=O)O)c(C)nc1CO (stereo in doubt; 3) | 27.42 mmHg | -782.91 mmHg/s | 231.39 bpm | 230.67 bpm | -784.9 mmHg/s | 227.72 bpm | 1296.62 mmHg/s | 3 min | 1303.47 mmHg/s | -0.09 mmHg | -0.24 mmHg | 25.68 mmHg | 1333.56 mmHg/s | 25.02 mmHg | Non-toxic | -0.11 mmHg | -822.39 mmHg/s | –
CC(=O)NC(CSCc1nc(C)c(CO)nc1C)C(=O)O (stereo in doubt; 4) | 22.4 mmHg | -799.02 mmHg/s | 228.5 bpm | 232.39 bpm | -823.04 mmHg/s | 231.5 bpm | 1191.76 mmHg/s | 5.705 min | 1186.33 mmHg/s | -0.7 mmHg | -0.59 mmHg | 21.69 mmHg | 1199.81 mmHg/s | 21.22 mmHg | Non-toxic | -0.15 mmHg | -872.56 mmHg/s | –
